Experimental data from patent US20120302609A1, “Pyrazolines for the Modulation of PKM2” (Dynamix Pharmaceuticals LTD., priority 2011, published 2012).

Legend:
PKM2, human recombinant = biological target: T1, PKM2, human recombinant (Homo sapiens, UniProt P14618); experiment: PKM2 enzymatic activity assay (Kinase-Glo Plus luminescence); type: biochemical;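 for Max activity Group: percent increase over no-compound signal after subtracting the no-PKM2 background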
T1 construct: purchased BPS 50295
Procedure: PKM2 performs the following enzymatic reaction, where the PKM2 substrates, PEP (phosphoenolpyruvate) and ADP, are converted to pyruvate and ATP as follows:
All of the enzymatic reactions were conducted in duplicates at room temperature for 1 hour in a 50 μL mixture containing: • PKM2 assay buffer (50 mM Imidazole, pH 7.2; 7 mM MgCl2; 50 mM KCl; 0.01% Tween; • and 0.05% BSA), 0.1 mM ADP, 0.5 mM PEP, 0.1 nM PKM2 enzyme (PKM2, human recombinant (BPS catalog number 50295)) and the indicated test compound. Fructose 1,6 biphosphat e, (FBP (Sigma)) was used as a positive control for activation at concentration of 0.5 mM. After enzymatic reactions, 50 μL of Kinase-Glo® Plus reagent (Promega kit) was added to each well and luminescence was measured using a BioTek Synergy™ 2 microplate reader.
PKM2 activity assays were performed in duplicates at each concentration. The luminescence data were analyzed using the computer software, GraphPad PRISM®. In the absence of the compound, the luminescence was defined as 0% activity. The percent activity in the presence of each compound was calculated according to the following equation:
% Activity=[(L−Lb)/(Lt−Lb)−1]×100%
where L=the luminescence in the presence of the test compound, Lb=the luminescence in the absence of PKM2, and Lt=the luminescence intensity in the absence of the test compound. The % activity values versus a series of compound concentrations were plotted using non-linear regression analysis of Sigmoidal dose-response curve generated with the equation Y=B+(T−B)/1+10^((LogEC50-X)×Hill Slope), where Y=percent activity, B=minimum percent activity, T=maximum percent activity, X=logarithm of compound and Hill Slope=slope factor or Hill coefficient. The AC50 values, shown in Table 2 were determined for the indicated test compounds as the concentration causing a half-maximal percent activity.

[1] = tested on: H1299 (Non-small cell lung carcinoma cell line); experiment: Cell proliferation index assay, Assay Protocol II (Fluofarma, flow cytometry); type: cell-based; conditions: Homo sapiens, NCI-H1299
Procedure: In a second assay to determine the inhibition of cell proliferation by a test compound, cell proliferation of the cell line of interest was measured by a cell proliferation index assay using Fluofarma (www.fluofarma.com) based technology. This assay is based on the dilution rate of a fluorescent membrane marker, which is a direct function of the number of cell divisions. Briefly, the assay is performed by loading the cells with a non-toxic fluorescent phospholipid analog before the seeding. […] Flow cytometry analysis of the fluorescent probe is performed after the loading of the cells both prior to, as well as after treatment with various concentrations of the test compound. The dilution rate of the fluorescent probe at the single cell level is directly correlated to the number of cell divisions.

[2] = tested on: H1299 Human Non-Small Cell Lung Carcinoma; experiment: H1299 human non-small cell lung carcinoma nude mouse xenograft model, tumor growth delay; type: in vivo, mice; conditions: for MTV (n) Day 28: median tumor volume of animals not at endpoint (n in brackets)
Procedure: (§1) The animals were fed ad libitum water (reverse osmosis, 1 ppm Cl) and NIH 31 Modified and Irradiated Lab Diet® consisting of 18.0% crude protein, 5.0% crude fat, and 5.0% crude fiber. The mice were housed on irradiated Enrich-o′ Cobs™ Laboratory Animal Bedding in static microisolators on a 12-hour light cycle at 20-22° C. (68-72° F.) and 40-60% humidity.
H1299 (NCI-H1299) NSCLC cells were obtained from the American Type Culture Collection, which reports the cell line to have originated from a lymph node metastasis and to lack p53 expression. The cell line was maintained as exponentially growing cultures in RPMI-1640 medium supplemented with 10% fetal bovine serum, 2 mM glutamine, 100 units/mL penicillin G sodium, 100 μg/mL streptomycin sulfate, 25 μg/mL gentamicin, 10 mM HEPES, and 0.075% sodium bicarbonate. The tumor cells were cultured in tissue culture flasks in a humidified incubator at 37° C., in an atmosphere of 5% CO2 and 95% air.
H1299 tumor cells were harvested during log phase growth and suspended in cold PBS. Each nude mouse was inoculated subcutaneously in the right flank with 0.2 mL of the cell suspension (1×10^7 cells). The tumors were periodically calipered in two dimensions to monitor size as the mean volume approached the desired 90-130 mm^3 range. Tumor size was calculated by the following formula:
where w=width and l=length, in mm, of the tumor. Tumor weight may be estimated with the assumption that 1 mg is equivalent to 1 mm^3 of tumor volume.
Compound 13A (MW 467.51, code-named XT26) was provided as a powder stored at −20° C., and protected from light during storage and handling. Dosing suspensions, in 0.5% carboxymethyl cellulose and 1% Tween® 80 in deionized water (Vehicle), were prepared fresh for each dose, and kept at 4° C. post formulation. Gemcitabine (Gemzar®, Lilly, 38 mg/mL, Lot # A866884A) was stored at room temperature. A fresh 12 mg/mL gemcitabine dosing solution was prepared on each treatment day by diluting an aliquot of the stock solution with saline.
(§2) Dosing began on D1 in four groups of mice (n=12/group in Groups 1, 3, and 4; n=6 in Group 2). XT26 and its vehicle were administered intraperitoneally (i.p.) twice daily for 28 days (b.i.d.×28), starting with the p.m. dose on D1 and ending with the a.m. dose on D29. Gemcitabine was administered i.p. once daily at three-day intervals for four doses (q3d×4). In all groups, the dosing volume of 10 ml/kg (0.2 ml/20 g mouse) was scaled to the weight of each individual animal, as measured twice weekly.
Group 1 mice received the XT26 vehicle b.i.d.×28, and served as the controls for the study. Group 2 received gemcitabine at 120 mg/kg. Group 3 was to receive XT26 at 100 mg/kg b.i.d.×28; on D21, four mice (Animals 1, 3, 4, and 5) erroneously received 200 mg/kg XT26 for their a.m. dose. […] Group 4 dosing at 200 mg/kg resumed on D17 on a qd (once daily)×13 dosing schedule. Because of a scheduling error, the D19 dose for Group 4 mice was omitted; qd dosing occurred on Days 17, 18, and 20-28.
Tumors were calipered twice weekly for the duration of the study, and each animal was euthanized when its neoplasm reached the predetermined endpoint volume (1200 mm^3) or at the end of the study, whichever came first. Animals that exited the study for tumor growth were documented as euthanized for tumor progression (TP), with the date of euthanasia. The time to endpoint (TTE) for each mouse was calculated by the following equation: […]
where TTE is expressed in days, endpoint volume is expressed in mm^3, b is the intercept, and m is the slope of the line obtained by linear regression of a log-transformed tumor growth data set.

[3] = H1299 nude mouse xenograft study, toxicity (body weight, deaths, organ weights); type: in vivo, mice; conditions: Gemcitabine 120 mg/kg ip q3d × 4
Procedure: as §1, §2
Group 1 mice received the XT26 vehicle b.i.d.×28, and served as the controls for the study. Group 2 received gemcitabine at 120 mg/kg. Group 3 was to receive XT26 at 100 mg/kg b.i.d.×28; on D21, four mice (Animals 1, 3, 4, and 5) erroneously received 200 mg/kg XT26 for their a.m. dose. Group 4 was to receive XT26 at 200 mg/kg b.i.d.×28, but dosing stopped on D9 (b.i.d.×8) because of toxicity. Group 4 dosing at 200 mg/kg resumed on D17 on a qd (once daily)×13 dosing schedule. Because of a scheduling error, the D19 dose for Group 4 mice was omitted; qd dosing occurred on Days 17, 18, and 20-28.
Animals were weighed daily on D1-5, then twice weekly until the completion of the study. The mice were observed frequently for overt signs of any adverse, treatment-related side effects.
On D10, both kidneys and the liver were harvested from each euthanized Group 4 animal. Each organ was weighed separately, fixed overnight in 10% neutral buffered formalin, and transferred to 70% ethanol.

[4] = Gemcitabine 120 mg/kg ip q3d × 4
[5] = Group 1 vs 2: Gemcitabine ip q3d × 4, 120 mg/kg

T1 sequence (P14618 whole entry): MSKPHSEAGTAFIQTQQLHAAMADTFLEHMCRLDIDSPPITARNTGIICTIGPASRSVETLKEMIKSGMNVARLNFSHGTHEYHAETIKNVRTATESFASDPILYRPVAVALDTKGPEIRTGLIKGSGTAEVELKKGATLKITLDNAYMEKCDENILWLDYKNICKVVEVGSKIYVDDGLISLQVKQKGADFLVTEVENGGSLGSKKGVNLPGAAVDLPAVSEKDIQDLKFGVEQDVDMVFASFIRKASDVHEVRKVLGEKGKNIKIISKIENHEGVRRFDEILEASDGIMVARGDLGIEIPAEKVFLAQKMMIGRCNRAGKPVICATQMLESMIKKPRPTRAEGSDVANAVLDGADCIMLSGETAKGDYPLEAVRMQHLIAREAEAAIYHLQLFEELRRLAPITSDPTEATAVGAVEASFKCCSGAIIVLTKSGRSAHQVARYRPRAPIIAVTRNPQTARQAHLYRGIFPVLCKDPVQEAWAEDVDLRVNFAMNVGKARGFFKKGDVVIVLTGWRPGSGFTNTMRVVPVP

| SMILES | AC50 (PKM2, human recombinant; 0.1 nM PKM2, 0.1 mM ADP, 0.5 mM PEP, 1 hour, room temperature, read-out: AC50 group) [µM] | Emax (PKM2, human recombinant; 1 h, maximum percent activity, luminescence without compound = 0% activity, read-out: Max activity Group) [%] | IC50 [1] [µM] | % TGD [2, 4] [%] | Regressions CR [2, 4] | Regressions PR [2, 4] | Regressions TFS [2, 4] | Median TTE ([2]; Gemcitabine 120 mg/kg ip q3d × 4, endpoint 1200 mm^3, 28-day study) [days] | MTV (n) Day 28 [2, 4] | MTV (n) Day 28 ([2]; Gemcitabine 120 mg/kg ip q3d × 4, listed as gemcitabine) [mm^3] | T − C ([2]; Gemcitabine 120 mg/kg ip q3d × 4, vs Group 1 vehicle) [days] | Median survival ([2]; Gemcitabine ip q3d × 4, 120 mg/kg (Column B = treated group)) | Are the survival curves sig different? [2, 5] | Hazard Ratio [2, 5] | response of tumor model to therapy ([2]; standard 120 mg/kg gemcitabine therapy) | Deaths NTR ([3]; non-treatment-related deaths) | Deaths TR ([3]; treatment-related deaths) |
| --- | --- | --- | --- | --- | --- | --- | --- | --- | --- | --- | --- | --- | --- | --- | --- | --- | --- |
| COc1ccc(C2CC(c3ccc(NS(=O)(=O)c4ccc(F)cc4)cc3)=NN2C(C)=O)cc1 (racemic) [Compound 6A, N-(4-(1-acetyl-5-(4-methoxyphenyl)-4,5-dihydro-1H-pyrazol-3-yl)phenyl)-4-fluorobenzenesulfonamide] | ≤ 1 | 130 to 200 | < 40 |  |  |  |  |  |  |  |  |  |  |  |  |  |  |
| COc1ccc(C2CC(c3ccc(NS(=O)(=O)c4c(F)cccc4F)cc3)=NN2C(C)=O)cc1 (stereo not drawn) [Compound 61A, N-(4-(1-acetyl-5-(4-methoxyphenyl)-4,5-dihydro-1H-pyrazol-3-yl)phenyl)-2,6-difluorobenzenesulfonamide] |  |  | < 40 |  |  |  |  |  |  |  |  |  |  |  |  |  |  |
| Nc1ccn([C@@H]2O[C@H](CO)[C@@H](O)C2(F)F)c(=O)n1 [Gemcitabine, gemcitabine, reference compound] |  |  |  | 50 | 0 | 0 | 0 | 28.0 | 600 (5) mm^3 | 600 | 9.3 | Undefined | Yes | 11.48 | responded moderately well | 0 | 0 |
